Measurements taken from ChEMBL document CHEMBL1201862, “PubChem BioAssay data set” (2004).
Activity calls are given as the source filed them.

Key:
[1] = molecular target: Photoreceptor-specific nuclear receptor (Homo sapiens, UniProt Q9Y5X4); assay type: functional, cell-based;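 also: CHO-S cells with Gal4-NCOR and VP16-NR2E3 two-hybrid luciferase reporter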
[2] = molecular target: Protein disulfide-isomerase (Homo sapiens, UniProt P07237); experiment: PDI inhibitors, insulin aggregation turbidity, dose response, biochemical, absorbance, cherry-picked samples (AID 602350); assay type: functional
[3] = Shn3 3'UTR reporter inhibitors, dose response, cell-based, Clone20 osteoblasts, firefly luciferase, cherry-picked (AID 624132); assay type: functional;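 also: firefly luciferase luminescence from reporter carrying the Shn3 3'UTR in osteoblasts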
BJ [4] = experiment: cells; assay type: functional, cell-based; settings: Homo sapiens
Protein RecA = molecular target: T1, Protein RecA (Mycobacterium tuberculosis, UniProt P9WHJ3); experiment: Fluorescence Cell-Free Homogeneous Dose Retest to Identify Inhibitors of RecA-Intein Splicing Activity. [Related pubchem assays (depositor defined):AID2097, AID2223, AID489010, AID492950]; assay type: functional
T1 sequence (P9WHJ3 whole entry): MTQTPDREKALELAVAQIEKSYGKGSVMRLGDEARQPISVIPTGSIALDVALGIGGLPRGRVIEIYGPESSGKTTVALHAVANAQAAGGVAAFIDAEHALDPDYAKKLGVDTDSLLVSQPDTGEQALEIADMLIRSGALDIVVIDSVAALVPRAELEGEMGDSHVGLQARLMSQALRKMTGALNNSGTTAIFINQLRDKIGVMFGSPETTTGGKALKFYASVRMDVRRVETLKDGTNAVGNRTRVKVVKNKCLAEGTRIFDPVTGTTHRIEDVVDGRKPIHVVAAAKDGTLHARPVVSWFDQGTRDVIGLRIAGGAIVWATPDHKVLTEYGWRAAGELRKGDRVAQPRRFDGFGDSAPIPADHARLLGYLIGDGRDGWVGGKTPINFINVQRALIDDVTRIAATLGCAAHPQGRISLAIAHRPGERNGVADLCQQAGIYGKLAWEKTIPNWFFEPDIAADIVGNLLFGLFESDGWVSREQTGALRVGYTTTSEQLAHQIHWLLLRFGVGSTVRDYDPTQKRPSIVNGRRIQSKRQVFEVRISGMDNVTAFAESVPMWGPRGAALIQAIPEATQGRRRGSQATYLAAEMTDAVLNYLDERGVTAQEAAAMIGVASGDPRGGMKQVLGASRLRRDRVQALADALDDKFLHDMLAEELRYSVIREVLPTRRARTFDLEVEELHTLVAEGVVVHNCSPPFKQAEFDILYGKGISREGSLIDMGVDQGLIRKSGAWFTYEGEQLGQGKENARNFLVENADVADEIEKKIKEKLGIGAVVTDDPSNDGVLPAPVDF

BJ [5] = experiment: cytotoxicity toward BJ-TERT-LT-ST fibroblasts, dose response, cell-based, RAS-independent, luminescence (AID 1935); assay type: functional; settings: Homo sapiens;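 also: BJ fibroblasts immortalized with TERT plus LT and ST oncogenes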
BJ [6] = experiment: cytotoxicity toward Ras-transformed BJeLR fibroblasts, dose response, cell-based, alamar blue fluorescence, cherrypicked samples (AID 2631); assay type: functional; settings: Homo sapiens;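 also: confirmatory dose-response assay in RAS-dependent BJ fibroblasts engineered with TERT, LT and ST, with cytotoxicity read by fluorescence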
BJ [7] = experiment: cytotoxicity toward BJ-TERT fibroblasts, dose response, cell-based, RAS-independent, luminescence (AID 1933); assay type: functional; settings: Homo sapiens
[8] = cytotoxicity toward DRD oncogenic fibroblasts, dose response, cell-based, non-viral oncogenic, luminescence (AID 1934); assay type: functional; settings: Homo sapiens
[9] = molecular target: T2, Replicative DNA helicase DnaB (Mycobacterium tuberculosis, UniProt P9WMR3); experiment: DnaB intein splicing inhibitors, dose response, biochemical, cell-free fluorescence (AID 449749); assay type: functional
T2 sequence (P9WMR3 whole entry): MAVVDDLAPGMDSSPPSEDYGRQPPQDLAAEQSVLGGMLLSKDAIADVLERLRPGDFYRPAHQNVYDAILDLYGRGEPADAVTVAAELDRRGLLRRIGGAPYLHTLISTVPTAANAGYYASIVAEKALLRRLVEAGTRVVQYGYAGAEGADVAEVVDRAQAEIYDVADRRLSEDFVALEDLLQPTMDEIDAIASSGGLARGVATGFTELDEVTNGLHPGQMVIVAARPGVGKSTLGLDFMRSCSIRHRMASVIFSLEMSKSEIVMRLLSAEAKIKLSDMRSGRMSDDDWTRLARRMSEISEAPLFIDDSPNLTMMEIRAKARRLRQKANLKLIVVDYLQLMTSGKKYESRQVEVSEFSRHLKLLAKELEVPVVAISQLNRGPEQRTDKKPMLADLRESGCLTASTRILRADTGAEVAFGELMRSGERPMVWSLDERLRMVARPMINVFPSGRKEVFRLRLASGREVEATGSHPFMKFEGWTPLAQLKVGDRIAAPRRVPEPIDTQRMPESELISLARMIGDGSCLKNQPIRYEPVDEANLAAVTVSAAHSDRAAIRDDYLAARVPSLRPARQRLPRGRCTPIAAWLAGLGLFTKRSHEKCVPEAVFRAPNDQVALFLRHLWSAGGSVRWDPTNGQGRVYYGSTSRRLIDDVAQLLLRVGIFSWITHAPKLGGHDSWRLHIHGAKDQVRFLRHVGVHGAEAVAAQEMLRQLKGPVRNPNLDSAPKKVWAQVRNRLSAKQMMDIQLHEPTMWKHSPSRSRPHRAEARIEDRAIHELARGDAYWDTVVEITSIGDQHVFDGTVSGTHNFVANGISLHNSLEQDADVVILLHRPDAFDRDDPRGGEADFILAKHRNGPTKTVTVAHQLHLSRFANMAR

Sequence of Protein disulfide-isomerase (P07237 whole entry): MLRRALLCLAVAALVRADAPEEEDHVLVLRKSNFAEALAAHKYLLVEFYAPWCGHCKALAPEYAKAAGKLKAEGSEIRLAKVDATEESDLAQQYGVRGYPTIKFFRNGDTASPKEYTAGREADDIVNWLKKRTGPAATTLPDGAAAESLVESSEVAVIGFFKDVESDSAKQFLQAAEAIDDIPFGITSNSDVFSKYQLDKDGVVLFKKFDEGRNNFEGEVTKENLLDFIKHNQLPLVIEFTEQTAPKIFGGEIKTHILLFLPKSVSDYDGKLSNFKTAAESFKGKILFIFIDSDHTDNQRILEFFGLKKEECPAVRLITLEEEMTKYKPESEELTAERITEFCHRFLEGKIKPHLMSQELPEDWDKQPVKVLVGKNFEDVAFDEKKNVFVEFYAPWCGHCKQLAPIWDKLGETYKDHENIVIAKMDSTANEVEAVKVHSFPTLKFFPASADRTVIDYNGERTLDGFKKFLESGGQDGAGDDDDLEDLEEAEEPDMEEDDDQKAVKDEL
Sequence of Photoreceptor-specific nuclear receptor (Q9Y5X4 whole entry, the tested form may be a part): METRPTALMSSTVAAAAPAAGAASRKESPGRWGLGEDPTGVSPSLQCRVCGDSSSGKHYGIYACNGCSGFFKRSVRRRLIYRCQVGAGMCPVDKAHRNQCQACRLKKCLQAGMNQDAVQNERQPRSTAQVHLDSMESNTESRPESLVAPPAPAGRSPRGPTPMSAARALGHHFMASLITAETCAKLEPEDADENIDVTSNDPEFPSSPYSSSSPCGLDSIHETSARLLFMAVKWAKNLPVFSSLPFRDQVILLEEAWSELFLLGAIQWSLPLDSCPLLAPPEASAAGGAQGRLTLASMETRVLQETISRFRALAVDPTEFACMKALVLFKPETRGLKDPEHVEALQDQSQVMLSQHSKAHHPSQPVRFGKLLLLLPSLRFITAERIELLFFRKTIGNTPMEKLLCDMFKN

SMILES: NC(=O)c1nn(-c2ccccc2)nc1NC(=O)CSc1nnnn1-c1ccc(Cl)cc1
- IC50 [1]: 2.27 µM (active)

SMILES: Cc1cc(O)cc2c1C1CCC3(C)C(=O)CCC3C1C=C2 (stereo not drawn)
- AC50 [2]: 19.5 µM (active)

SMILES: Cc1c(O)ccc2c(CN3CCN(C/C=C/c4ccccc4)CC3)cc(=O)oc12
- AC50 [2]: 19.5 µM (active)

SMILES: CCOC(=O)C1(CCOc2ccccc2)CCN(Cc2cc(OC)c(O)cc2Cl)CC1
- AC50 [2]: 6.03 µM (active)

SMILES: COc1ccc2c(CC(=O)OCC(=O)N(C)c3c(N)n(Cc4ccccc4)c(=O)[nH]c3=O)coc2c1
- AC50 [2]: 5.45 µM (active)
- AC50 [3]: 21.2 µM (active)

SMILES: COc1cccc(/C=C2\SC(=S)N(CCCC(=O)N(CCO)c3ccccc3)C2=O)c1
- EC50 (BJ [4]): > 150 µM (not active)
- EC50 (Protein RecA): 7.22 µM (active)
- EC50 (BJ [5]): > 75 µM (inconclusive)
- EC50 (BJ [6]): > 66.7 µM (inactive)
- EC50 (BJ [7]): 3.1 µM (inconclusive)
- EC50 [8]: 6.07 µM (inconclusive)
- AC50 [9]: 41.7 µM (active)
